The assay deals with human RIP1 kinase domain (2-375) (Homo sapiens (Human), UniProt Q13546). In words: biochemical. It is filed as biochemical. Conditions: human RIP1 kinase domain (2-375), 50 uM ATP, 2 hours incubation, Transcreener ADP assay; read-out: RIP1 Ki. Put shortly:
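Ki^app comes from Morrison tight-binding fits of fractional activity versus compound concentration. Activity was read as ADP production, via tracer displacement lowering fluorescence polarization (633 nm laser). Conditions: 2 h, 50 nM insect-cell-expressed enzyme, 50 uM ATP, 30 mM MgCl2, 1 mM DTT, 0.5% DMSO, pH 7.5 Hepes.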
Chain of human RIP1 kinase domain (2-375) (Q13546 2-375): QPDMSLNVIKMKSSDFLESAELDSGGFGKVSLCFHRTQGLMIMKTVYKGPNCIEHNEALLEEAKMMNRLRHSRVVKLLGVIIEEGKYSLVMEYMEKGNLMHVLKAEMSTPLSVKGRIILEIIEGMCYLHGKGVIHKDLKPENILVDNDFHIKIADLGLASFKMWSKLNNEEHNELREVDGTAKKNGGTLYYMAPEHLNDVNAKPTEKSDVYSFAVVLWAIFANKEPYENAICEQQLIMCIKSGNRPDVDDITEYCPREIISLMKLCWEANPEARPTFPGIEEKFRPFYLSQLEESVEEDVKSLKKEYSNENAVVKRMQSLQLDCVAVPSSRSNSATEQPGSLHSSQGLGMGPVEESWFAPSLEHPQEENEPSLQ
What is called Ki is the dissociation constant of the complex between target and ligand, obtained from inhibition or displacement. For the compound `CN1C(=O)C(NC(=O)c2ncn(Cc3ccccc3)n2)CCn2ccnc21` (centres unmarked) [Example 195, 1-benzyl-N-(9-methyl-8-oxo-6,7,8,9-tetrahydro-5H-imidazo[1,2-a][1,3]diazepin-7-yl)-1H-1,2,4-triazole-3-carboxamide], the Ki is 123 nM. The result for `CN1C(=O)C(NC(=O)c2cn(Cc3ccccc3)nn2)CCn2ccnc21` (centres unmarked) [Example 196, 1-benzyl-N-(9-methyl-8-oxo-6,7,8,9-tetrahydro-5H-imidazo[1,2-a][1,3]diazepin-7-yl)-1H-1,2,3-triazole-4-carboxamide] reads 341 nM. The result for `CC(C)n1ncc2c1OC[C@H](NC(=O)c1nnc(Cc3ccccc3)[nH]1)C(=O)N2` [Example 197, (S)-5-benzyl-N-(1-isopropyl-5-oxo-4,5,6,7-tetrahydro-1H-pyrazolo [3,4-b][1,4]oxazepin-6-yl)-4H-1,2,4-triazole-3-carboxamide] reads 5100 nM; that for `O=C(NC1CCn2ncc3c2N(CCO3)C1=O)c1ncn(Cc2ccccc2)n1` (centres unmarked) [Example 198, 1-benzyl-N-(6-oxo-4,5,6,7,8,9-hexahydro-3-oxa-1,5a,9a-triazabenzo[cd]azulen-7-yl)-1H-1,2,4-triazole-3-carboxamide], 232 nM; that for `O=C(NC1CCn2ncc3c2N(CCO3)C1=O)c1nnc(Cc2ccccc2)[nH]1` (centres unmarked) [Example 199, 5-benzyl-N-(6-oxo-4,5,6,7,8,9-hexahydro-3-oxa-1,5a,9a-triazabenzo[cd]azulen-7-yl)-4H-1,2,4-triazole-3-carboxamide], 766 nM. With `CN1C(=O)[C@@H](NC(=O)c2nnc3cnc(C(F)(F)F)cn23)COc2ccccc21` [Example 200, (S)—N-(5-methyl-4-oxo-2,3,4,5-tetrahydrobenzo[b][1,4]oxazepin-3-yl)-6-(trifluoromethyl)-[1,2,4]triazolo[4,3-a]pyrazine-3-carboxamide], the Ki turned out to be 1700 nM.

On to `CCC1(C)OCc2nnc(C(=O)N[C@H]3COc4ccccc4N(C)C3=O)cc21` (stereo partly drawn) [Example 201, 5-ethyl-5-methyl-N—((S)-5-methyl-4-oxo-2,3,4,5-tetrahydrobenzo[b][1,4]oxazepin-3-yl)-5,7-dihydrofuro[3,4-c]pyridazine-3-carboxamide], for which the Ki turned out to be 411 nM. As for `CCn1ncc2cnc(C(=O)N[C@H]3COc4ccccc4N(C)C3=O)cc21` [Example 202, (S)-1-ethyl-N-(5-methyl-4-oxo-2,3,4,5-tetrahydrobenzo[b][1,4]oxazepin-3-yl)-1H-pyrazolo[4,3-c]pyridine-6-carboxamide], the figure is 57.6 nM; as for `CC(C)n1ncc2c1OC[C@H](NC(=O)c1ncn(Cc3ccccc3)n1)C(=O)N2` [Example 203, (S)-1-benzyl-N-(1-isopropyl-5-oxo-4,5,6,7-tetrahydro-1H-pyrazolo[3,4-b][1,4]oxazepin-6-yl)-1H-1,2,4-triazole-3-carboxamide], 912 nM; as for `CN1C(=O)C(NC(=O)c2ncn(Cc3ccccc3)n2)CCn2cncc21` (centres unmarked) [Example 204, 1-benzyl-N-(1-methyl-2-oxo-2,3,4,5-tetrahydro-1H-imidazo[1,5-a][1,3]diazepin-3-yl)-1H-1,2,4-triazole-3-carboxamide], 84.3 nM. The result for `CN1C(=O)[C@@H](NC(=O)c2n[nH]c3c2CC(c2ccc(F)cc2)OC3)COc2ccccc21` (stereo partly drawn) [Example 205, 5-(4-fluorophenyl)-N—((S)-5-methyl-4-oxo-2,3,4,5-tetrahydrobenzo[b][1,4]oxazepin-3-yl)-1,4,5,7-tetrahydropyrano[3,4-c]pyrazole-3-carboxamide] reads 98.3 nM. The result for `CN1C(=O)[C@@H](NC(=O)c2n[nH]c3c2CC(c2ccc(F)c(F)c2)OC3)COc2ccccc21` (stereo partly drawn) [Example 206, 5-(3,4-difluorophenyl)-N—((S)-5-methyl-4-oxo-2,3,4,5-tetrahydrobenzo[b][1,4]oxazepin-3-yl)-1,4,5,7-tetrahydropyrano[3,4-c]pyrazole-3-carboxamide] reads 131 nM; that for `CN1C(=O)[C@@H](NC(=O)c2n[nH]c3c2CC(c2ccc(F)cc2F)OC3)COc2ccccc21` (stereo partly drawn) [Example 207, 5-(2,4-difluorophenyl)-N—((S)-5-methyl-4-oxo-2,3,4,5-tetrahydrobenzo[b][1,4]oxazepin-3-yl)-1,4,5,7-tetrahydropyrano[3,4-c]pyrazole-3-carboxamide], 61.7 nM; that for `CN1C(=O)C(NC(=O)c2ncn(Cc3ccccc3)n2)CCn2nc(-c3ccccc3)cc21` (centres unmarked) [Example 208, 1-benzyl-N-(4-methyl-5-oxo-2-phenyl-5,6,7,8-tetrahydro-4H-pyrazolo[1,5-a][1,3]diazepin-6-yl)-1H-1,2,4-triazole-3-carboxamide], 120 nM.

As for `CN1C(=O)C(NC(=O)c2n[nH]c(Cc3ccccc3)n2)CCn2nc(-c3ccccc3)cc21` (centres unmarked) [Example 209, 5-benzyl-N-(4-methyl-5-oxo-2-phenyl-5,6,7,8-tetrahydro-4H-pyrazolo[1,5-a][1,3]diazepin-6-yl)-1H-1,2,4-triazole-3-carboxamide], the Ki stood at 75.6 nM. The result for `CN1C(=O)[C@@H](NC(=O)c2n[nH]c3c2CC(CC(F)(F)F)OC3)COc2ccccc21` (stereo partly drawn) [Example 210, N—((S)-5-methyl-4-oxo-2,3,4,5-tetrahydrobenzo[b][1,4]oxazepin-3-yl)-5-(2,2,2-trifluoroethyl)-1,4,5,7-tetrahydropyrano[3,4-c]pyrazole-3-carboxamide] reads 193 nM; that for `CN1C(=O)[C@@H](NC(=O)c2n[nH]c3c2CC2(CCC2)OC3)COc2ccccc21` [Example 211, (S)—N-(5-methyl-4-oxo-2,3,4,5-tetrahydrobenzo[b][1,4]oxazepin-3-yl)-4′,7′-dihydro-1′H-spiro[cyclobutane-1,5′-pyrano[3,4-c]pyrazole]-3′-carboxamide], 156 nM.

As for `CN1C(=O)[C@@H](NC(=O)c2n[nH]c3c2CC(C)(c2ccccc2)OC3)COc2ccccc21` (stereo partly drawn) [Example 212, 5-methyl-N—((S)-5-methyl-4-oxo-2,3,4,5-tetrahydrobenzo[b][1,4]oxazepin-3-yl)-5-phenyl-1,4,5,7-tetrahydropyrano[3,4-c]pyrazole-3-carboxamide], the Ki amounted to 573 nM.

For the compound `CC(C)n1ncc2cnc(C(=O)N[C@H]3COc4ccccc4N(C)C3=O)cc21` [Example 213, (S)-1-isopropyl-N-(5-methyl-4-oxo-2,3,4,5-tetrahydrobenzo[b][1,4]oxazepin-3-yl)-1H-pyrazolo[4,3-c]pyridine-6-carboxamide], the Ki came to 12.3 nM.

Consider `Cc1ncn2c1N(C)C(=O)C(NC(=O)c1ncn(Cc3ccccc3)n1)CC2` (centres unmarked) [Example 215, 1-benzyl-N-(1,9-dimethyl-2-oxo-2,3,4,5-tetrahydro-1H-imidazo[1,5-a][1,3]diazepin-3-yl)-1H-1,2,4-triazole-3-carboxamide], for which the Ki is 106 nM. As for `CN1C(=O)C(NC(=O)c2cn(Cc3ccccc3)nn2)CCn2nc(-c3ccccc3)cc21` (centres unmarked) [Example 216, 1-benzyl-N-(4-methyl-5-oxo-2-phenyl-5,6,7,8-tetrahydro-4H-pyrazolo[1,5-a][1,3]diazepin-6-yl)-1H-1,2,3-triazole-4-carboxamide], the figure is 97.2 nM; as for `CN1C(=O)[C@@H](NC(=O)c2ncc3c(n2)C(C)(C)OC3)COc2ccccc21` [Example 217, (S)-7,7-dimethyl-N-(5-methyl-4-oxo-2,3,4,5-tetrahydrobenzo[b][1,4]oxazepin-3-yl)-5,7-dihydrofuro[3,4-d]pyrimidine-2-carboxamide], 61.7 nM. The result for `CN1C(=O)[C@@H](NC(=O)c2ncc3c(n2)C(C)(C)SC3)COc2ccccc21` [Example 218, (S)-7,7-dimethyl-N-(5-methyl-4-oxo-2,3,4,5-tetrahydrobenzo[b][1,4]oxazepin-3-yl)-5,7-dihydrothieno[3,4-d]pyrimidine-2-carboxamide] reads 25.4 nM; that for `Cc1cc2n(n1)CC[C@H](NC(=O)c1ncn(Cc3cccc(F)c3F)n1)C(=O)N2C` [Example 219, (S)-1-(2,3-difluorobenzyl)-N-(2,4-dimethyl-5-oxo-5,6,7,8-tetrahydro-4H-pyrazolo[1,5-a][1,3]diazepin-6-yl)-1H-1,2,4-triazole-3-carboxamide], 29.7 nM; that for `Cc1cc2n(n1)CC[C@H](NC(=O)c1ncn(Cc3ccc(F)c(F)c3)n1)C(=O)N2C` [Example 220, (S)-1-(3,4-difluorobenzyl)-N-(2,4-dimethyl-5-oxo-5,6,7,8-tetrahydro-4H-pyrazolo[1,5-a][1,3]diazepin-6-yl)-1H-1,2,4-triazole-3-carboxamide], 47.1 nM. The result for `Cc1cc2n(n1)CC[C@H](NC(=O)c1ncn(Cc3ccc(F)cc3F)n1)C(=O)N2C` [Example 221, (S)-1-(2,4-difluorobenzyl)-N-(2,4-dimethyl-5-oxo-5,6,7,8-tetrahydro-4H-pyrazolo[1,5-a][1,3]diazepin-6-yl)-1H-1,2,4-triazole-3-carboxamide] reads 37.7 nM. In the case of `Cc1cc2n(n1)CC[C@H](NC(=O)c1ncn(Cc3ccc(F)cc3)n1)C(=O)N2C` [Example 222, (S)—N-(2,4-dimethyl-5-oxo-5,6,7,8-tetrahydro-4H-pyrazolo[1,5-a][1,3]diazepin-6-yl)-1-(4-fluorobenzyl)-1H-1,2,4-triazole-3-carboxamide], the Ki was 25.9 nM. The result for `CN1C(=O)[C@@H](NC(=O)c2ncn(Cc3ccc(F)c(F)c3)n2)CCn2nc(C3CC3)cc21` [Example 223, (S)—N-(2-cyclopropyl-4-methyl-5-oxo-5,6,7,8-tetrahydro-4H-pyrazolo[1,5-a][1,3]diazepin-6-yl)-1-(3,4-difluorobenzyl)-1H-1,2,4-triazole-3-carboxamide] reads 31.9 nM; that for `CN1C(=O)[C@@H](NC(=O)c2ncn(Cc3ccc(F)cc3F)n2)CCn2nc(C3CC3)cc21` [Example 224, (S)—N-(2-cyclopropyl-4-methyl-5-oxo-5,6,7,8-tetrahydro-4H-pyrazolo[1,5-a][1,3]diazepin-6-yl)-1-(2,4-difluorobenzyl)-1H-1,2,4-triazole-3-carboxamide], 21.9 nM.

The values are drawn from patent US10988459B2 (priority 2015, dated 2021).
